Assay results reported in BindingDB's records for patent US20230382915 (Deciphera Pharmaceuticals, 2023).

What was measured:
eIF-2-alpha kinase GCN2 = eIF-2-alpha kinase GCN2 (Homo sapiens, UniProt Q9P2K8); assay: Biochemical Assay for GCN2
Description: Activity of GCN2 kinase was determined using a TR-FRET kinase activity assay (e.g. Riddle et al. Analytical Biochemistry (2006) 356(1) 108-116). Assays were conducted in 384-well plates (13 μL assay volume) using 2 nM GCN2 (Carna Biosciences), 130 nM GFP-EIf2α (Invitrogen), 0.2 mg/mL E. coli tRNA (sigma) and 1 mM ATP in kinase buffer (Invitrogen). Inhibition of GCN2 was measured by adding serial diluted test compound (final assay concentration of 0.5% DMSO) followed by a 3-hour incubation. Tb-peIF2α (pSer52) antibody (Invitrogen) (2 nM final assay concentration) in kinase buffer containing EDTA (final assay concentration of 20 mM) was added. After a 60 min incubation at room temperature, TR-FRET was monitored using an excitation wavelength of 340 nm and emission wavelengths of 490 nm and 520 nm. The emission ratio (520/490) at each compound concentration of was converted to percent inhibition using controls (i.e., reaction with no test compound and reaction with a known inhibitor) and IC50 values were calculated by fitting a four-parameter sigmoidal curve to the data using Prism (GraphPad software).

[1] = biological target: T1, Eukaryotic translation initiation factor 2-alpha kinase 3 (Homo sapiens, UniProt Q9NZJ5); assay: Biochemical Assay for PERK
T1 sequence (Q9NZJ5 whole entry): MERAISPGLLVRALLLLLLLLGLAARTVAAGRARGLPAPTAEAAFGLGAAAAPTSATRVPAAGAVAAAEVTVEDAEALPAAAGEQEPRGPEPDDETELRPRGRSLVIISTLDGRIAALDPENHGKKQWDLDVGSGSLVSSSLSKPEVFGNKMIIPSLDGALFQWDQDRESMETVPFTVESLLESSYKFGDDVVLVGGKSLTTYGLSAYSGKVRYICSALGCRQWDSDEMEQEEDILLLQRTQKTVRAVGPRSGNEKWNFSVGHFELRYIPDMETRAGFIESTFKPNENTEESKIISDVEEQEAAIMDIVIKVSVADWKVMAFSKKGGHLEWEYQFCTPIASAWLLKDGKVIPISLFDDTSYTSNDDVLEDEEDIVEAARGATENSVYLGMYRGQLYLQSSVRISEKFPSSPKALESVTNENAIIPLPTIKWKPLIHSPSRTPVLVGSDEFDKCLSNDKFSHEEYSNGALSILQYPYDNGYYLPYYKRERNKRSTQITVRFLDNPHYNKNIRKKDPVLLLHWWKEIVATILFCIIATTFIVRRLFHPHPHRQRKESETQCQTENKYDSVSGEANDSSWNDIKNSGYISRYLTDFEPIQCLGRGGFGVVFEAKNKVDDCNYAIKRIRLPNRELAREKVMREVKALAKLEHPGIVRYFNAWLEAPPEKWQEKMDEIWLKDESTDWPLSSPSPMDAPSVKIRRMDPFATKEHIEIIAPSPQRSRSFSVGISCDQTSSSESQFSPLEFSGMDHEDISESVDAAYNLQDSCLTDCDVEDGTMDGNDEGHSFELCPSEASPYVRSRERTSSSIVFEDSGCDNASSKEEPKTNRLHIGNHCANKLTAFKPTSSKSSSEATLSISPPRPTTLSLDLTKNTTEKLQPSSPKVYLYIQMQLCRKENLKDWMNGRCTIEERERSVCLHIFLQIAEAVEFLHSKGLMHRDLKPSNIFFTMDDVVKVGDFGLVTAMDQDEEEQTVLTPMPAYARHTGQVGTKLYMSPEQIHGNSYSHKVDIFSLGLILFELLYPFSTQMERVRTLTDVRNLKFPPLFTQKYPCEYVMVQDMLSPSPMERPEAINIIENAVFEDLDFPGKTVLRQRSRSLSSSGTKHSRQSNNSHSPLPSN
Description: Activity of PERK kinase was determined spectroscopically using a coupled pyruvate kinase/lactate dehydrogenase assay that continuously monitors the ATP hydrolysis-dependent oxidation of NADH (e.g., Schindler et al. Science (2000) 289: 1938-1942). Assays were conducted in 384-well plates ([…] final volume) using 10 nM PERK (from Beryllium), 0.25 mg/mL Myelin Basic Protein substrate, 1.5 units pyruvate kinase, 2.1 units lactate dehydrogenase, 1 mM phosphoenol pyruvate, 0.28 mM NADH and 1 mM ATP in assay buffer (100 mM Tris, pH 7.5, 15 mM MgCl2, 0.5 mM DTT, 0.004% (w/v) BSA, and 0.004% Triton X-100). Inhibition of PERK was measured by adding serial diluted test compound (final assay concentration of 1% DMSO). A decrease in absorption at 340 nm was monitored continuously for 6 hours at 30° C. on a multi-mode microplate reader (BioTek). The reaction rate was calculated using the 2-3 h time frame. The reaction rate at each concentration of compound was converted to percent inhibition using controls (i.e., reaction with no test compound and reaction with a known inhibitor) and IC50 values were calculated using software routines in Prism (GraphPad software).

eIF-2-alpha kinase GCN2, sequence (Q9P2K8 whole entry): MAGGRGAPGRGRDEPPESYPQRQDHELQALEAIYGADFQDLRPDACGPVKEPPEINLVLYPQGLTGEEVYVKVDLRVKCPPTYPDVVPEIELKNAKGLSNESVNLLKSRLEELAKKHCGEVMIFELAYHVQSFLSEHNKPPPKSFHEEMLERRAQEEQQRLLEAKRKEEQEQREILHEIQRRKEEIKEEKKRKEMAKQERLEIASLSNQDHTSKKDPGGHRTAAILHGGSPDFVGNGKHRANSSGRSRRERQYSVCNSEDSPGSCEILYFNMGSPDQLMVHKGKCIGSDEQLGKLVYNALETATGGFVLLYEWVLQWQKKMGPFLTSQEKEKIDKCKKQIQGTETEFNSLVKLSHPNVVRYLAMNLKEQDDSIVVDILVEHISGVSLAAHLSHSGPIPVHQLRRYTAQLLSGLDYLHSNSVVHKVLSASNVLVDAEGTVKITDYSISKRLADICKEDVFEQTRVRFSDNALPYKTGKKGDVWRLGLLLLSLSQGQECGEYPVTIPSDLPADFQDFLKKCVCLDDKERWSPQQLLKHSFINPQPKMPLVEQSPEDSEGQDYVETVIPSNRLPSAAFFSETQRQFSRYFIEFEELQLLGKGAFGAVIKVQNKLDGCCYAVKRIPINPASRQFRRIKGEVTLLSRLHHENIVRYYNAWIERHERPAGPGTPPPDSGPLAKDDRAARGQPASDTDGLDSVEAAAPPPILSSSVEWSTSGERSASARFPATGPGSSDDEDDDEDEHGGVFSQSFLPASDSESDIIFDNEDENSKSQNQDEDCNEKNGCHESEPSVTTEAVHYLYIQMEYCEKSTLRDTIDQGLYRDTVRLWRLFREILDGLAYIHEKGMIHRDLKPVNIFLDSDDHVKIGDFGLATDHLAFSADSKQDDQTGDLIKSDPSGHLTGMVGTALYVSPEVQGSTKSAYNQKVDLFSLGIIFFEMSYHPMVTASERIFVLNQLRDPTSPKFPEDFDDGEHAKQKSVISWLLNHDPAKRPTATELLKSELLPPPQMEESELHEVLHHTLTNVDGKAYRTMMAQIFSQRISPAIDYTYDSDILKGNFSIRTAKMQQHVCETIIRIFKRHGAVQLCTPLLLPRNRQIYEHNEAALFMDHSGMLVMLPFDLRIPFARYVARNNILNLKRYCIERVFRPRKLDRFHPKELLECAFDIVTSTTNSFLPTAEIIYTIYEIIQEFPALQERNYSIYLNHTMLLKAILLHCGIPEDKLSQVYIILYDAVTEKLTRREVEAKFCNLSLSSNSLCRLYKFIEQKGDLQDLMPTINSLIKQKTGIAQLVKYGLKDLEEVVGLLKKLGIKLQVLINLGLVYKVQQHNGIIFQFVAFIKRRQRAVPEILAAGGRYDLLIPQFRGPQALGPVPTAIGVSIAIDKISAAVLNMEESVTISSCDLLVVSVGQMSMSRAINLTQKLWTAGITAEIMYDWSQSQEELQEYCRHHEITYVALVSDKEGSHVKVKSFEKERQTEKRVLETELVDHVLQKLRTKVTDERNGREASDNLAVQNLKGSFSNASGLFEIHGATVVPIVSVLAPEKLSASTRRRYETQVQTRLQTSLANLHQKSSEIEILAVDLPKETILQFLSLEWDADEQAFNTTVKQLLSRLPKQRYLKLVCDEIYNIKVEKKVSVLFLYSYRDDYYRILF

| Compound | IC50 (eIF-2-alpha kinase GCN2) | IC50 [1] |
| --- | --- | --- |
| CN1CCC(n2cc(-c3cccc(NS(=O)(=O)c4cc(Cl)cc(CO)c4Cl)c3F)c3c(N)ncnc32)CC1 [US20230382915, Example 17] | < 100 nM | < 100 nM |
| Nc1nccc2occ(-c3cccc(NS(=O)(=O)c4cc(Cl)cc(CO)c4Cl)c3F)c12 [US20230382915, Example 12] |  | < 100 nM |
| Nc1nccc2scc(-c3cccc(NS(=O)(=O)c4cc(Cl)cc(CO)c4Cl)c3F)c12 [US20230382915, Example 11] |  | < 100 nM |
